From ChEMBL document CHEMBL1136383, “New fibrinolytic agents: benzothiophene derivatives as inhibitors of the t-PA-PAI-1 complex formation” (Bioorg Med Chem Lett, 2003)

Target: Plasminogen activator inhibitor 1 (Homo sapiens, UniProt P05121)
Test: Inhibitory activity against plasminogen activator inhibitor 1 (PAI-1) was evaluated by inhibition of tissue plasminogen activator/PAI-1 complex formation in t-PA-induced fibrin clot lysis assay

Sequence of Plasminogen activator inhibitor 1 (P05121 whole entry): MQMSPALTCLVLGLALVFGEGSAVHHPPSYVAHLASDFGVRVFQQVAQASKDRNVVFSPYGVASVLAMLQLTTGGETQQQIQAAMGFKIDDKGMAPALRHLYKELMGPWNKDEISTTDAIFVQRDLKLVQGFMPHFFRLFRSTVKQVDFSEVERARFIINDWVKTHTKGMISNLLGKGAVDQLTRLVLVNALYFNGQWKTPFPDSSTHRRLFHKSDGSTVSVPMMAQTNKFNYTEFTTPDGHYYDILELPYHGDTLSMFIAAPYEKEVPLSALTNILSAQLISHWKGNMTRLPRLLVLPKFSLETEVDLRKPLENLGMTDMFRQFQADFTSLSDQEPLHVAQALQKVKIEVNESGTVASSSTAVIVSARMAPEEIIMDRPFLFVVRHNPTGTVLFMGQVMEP

IC50 [nM] | Structure (SMILES)
10700 | O=C(O)/C(=C/c1sc2cc(OCc3ccc(-c4ccccc4)cc3)c(OCc3ccc(-c4ccccc4)cc3)cc2c1Oc1ccc(Oc2ccncc2)cc1)c1ccncc1
480 | Cc1cc(Oc2c(/C=C(/C(=O)O)c3ccncc3)sc3cc(OCc4ccc(-c5ccccc5)cc4)c(OCc4ccc(-c5ccccc5)cc4)cc23)ccc1Cl
1090 | Cc1cc(Oc2c(/C=C(/C(=O)O)c3ccncc3)sc3cc(OCc4ccc(-c5ccccc5)cc4)c(OCc4ccc(-c5ccccc5)cc4)cc23)cc(C)c1Cl
106000 | CN(C)CCSc1ccc(/C=c2\[nH]c(=O)/c(=C/c3ccccc3)[nH]c2=O)s1
2480 | Cc1ccc(Oc2c(/C=C(/C(=O)O)c3ccncc3)sc3cc(OCc4ccc(-c5ccccc5)cc4)c(OCc4ccc(-c5ccccc5)cc4)cc23)cn1
2070 | O=C(O)/C(=C/c1sc2cc(OCc3ccc(-c4ccccc4)cc3)c(OCc3ccc(-c4ccccc4)cc3)cc2c1Oc1ccc(Cl)nc1)c1ccncc1
2400 | O=C(O)/C(=C/c1sc2cc(OCc3ccc(-c4ccccc4)cc3)c(OCc3ccc(-c4ccccc4)cc3)cc2c1Oc1cccnc1)c1ccncc1
59400 | COc1ccc(/C=c2\[nH]c(=O)/c(=C/c3ccccc3)[nH]c2=O)cc1
2910 | O=C(O)/C(=C/c1sc2cc(OCc3ccc(-c4ccccc4)cc3)c(OCc3ccc(-c4ccccc4)cc3)cc2c1Oc1ccc(-n2ccnc2)cc1)c1ccncc1
2280 | O=C(O)/C(=C/c1sc2cc(OCc3ccc(-c4ccccc4)cc3)c(OCc3ccc(-c4ccccc4)cc3)cc2c1Oc1ccc(Cl)c(F)c1)c1ccncc1
51000 | CN(C)CCSc1ccc(/C=c2\[nH]c(=O)/c(=C/c3ccccc3)[nH]c2=O)cc1
39 | O=C(O)/C(=C/c1sc2cc(OCc3ccc(Sc4ccccc4)cc3)c(OCc3ccc(Sc4ccccc4)cc3)cc2c1Oc1ccc(Cl)cc1)c1ccncc1
220 | O=C(O)/C(=C/c1sc2cc(OCc3cccc(-c4ccccc4)c3)c(OCc3cccc(-c4ccccc4)c3)cc2c1Oc1ccc(Cl)cc1)c1ccncc1
470 | COC(=O)/C(=C/c1sc2cc(OCc3ccccc3)c(OCc3ccccc3)cc2c1Oc1ccc(Cl)cc1)c1ccncc1
590 | O=C(O)/C(=C/c1sc2cc(OCc3ccc(-c4ccccc4)cc3)c(OCc3ccc(-c4ccccc4)cc3)cc2c1Oc1ccc(F)c(F)c1)c1ccncc1
10800 | O=C(O)/C(=C/c1sc2cc(OCc3ccccc3-c3ccccc3)c(OCc3ccccc3-c3ccccc3)cc2c1Oc1ccc(Cl)cc1)c1ccncc1
140 | COc1ccc(-c2ccc(COc3cc4sc(/C=C(/C(=O)O)c5ccncc5)c(Oc5ccc(Cl)cc5)c4cc3OCc3ccc(-c4ccc(OC)cc4)cc3)cc2)cc1
6060 | O=C(O)/C(=C/c1sc2cc(OCc3ccc(-c4ccccc4)cc3)c(OCc3ccc(-c4ccccc4)cc3)cc2c1Oc1ccc2ncccc2c1)c1ccncc1
270 | O=C(O)/C(=C/c1sc2cc(OCc3ccc(Cc4ccccc4)cc3)c(OCc3ccc(Cc4ccccc4)cc3)cc2c1Oc1ccc(Cl)cc1)c1ccncc1
240 | O=C(O)/C(=C/c1sc2cc(OCc3ccc(-c4ccccc4)cc3)c(OCc3ccc(-c4ccccc4)cc3)cc2c1Oc1cccc(F)c1)c1ccncc1
100 | O=C(O)/C(=C/c1sc2cc(OCc3ccc(-c4ccccc4)cc3)c(OCc3ccc(-c4ccccc4)cc3)cc2c1Oc1ccccc1)c1ccncc1
100 | O=C(O)/C(=C/c1sc2cc(OCc3ccc(Oc4ccccc4)cc3)c(OCc3ccc(Oc4ccccc4)cc3)cc2c1Oc1ccc(Cl)cc1)c1ccncc1
770 | O=C(O)/C(=C/c1sc2cc(OCc3ccc(S(=O)(=O)c4ccccc4)cc3)c(OCc3ccc(S(=O)(=O)c4ccccc4)cc3)cc2c1Oc1ccc(Cl)cc1)c1ccncc1
